Data taken from patent publication US20250161243A1, “MEF2 TRANSCRIPTIONAL ACTIVATORS TO TREAT NEUROLOGIC CONDITIONS” (The Scripps Research Institute, priority 2022, published 2025).
Where a name gives a salt, the structure may show the parent alone.

test system: MEF2 transcriptional activity; assay: MEF2 transcriptional activity screen (Luciferase-MEF2 reporter in human neural progenitor cells); assay type: cell-based; conditions: Homo sapiens, read-out: qAC50 [M]

Row | SMILES | EC50
1 | O=C(NOCCO)c1cc(CN2OCCCC2=O)c(F)c(F)c1Nc1ccc(I)cc1F [CH-4987655] | 1.07e-07 M

same assay, conditions: Homo sapiens; concentration for half-maximal activity derived from the hill equation model; MEF2 luciferase reporter; read-out: qAC50

Row | SMILES | EC50
2 | COC(=O)C1=C(C)NC(C)=C(C(=O)OC(C)C)C1c1ccccc1[N+](=O)[O-] (stereo not drawn) | 1.53e-06 M
3 | CSCCOC(=O)C1=C(C)NC(C)=C(C(=O)OCCSC)C1c1ccccc1[N+](=O)[O-] | 2.07e-06 M
4 | CC(=O)C(=Cc1ccccc1)C(C)=O | 1.57e-05 M
5 | Cn1cc(-c2ccc(S(=O)(=O)n3ccc(/C=C/C(=O)Nc4ccccc4N)c3)cc2)cn1 [4SC-202] | 1.75e-05 M
6 | CC(CO)(CO)NCc1ccc2c3c(cccc13)-c1ccccc1-2 [773U82] | 1.89e-05 M
7 | O=c1cc(-c2ccc(O)cc2)oc2cc(O)cc(O)c12 [APIGENIN] | 4.69e-06 M
8 | CCCNC(=O)c1ccc2c(c1)N(C(C)CN1CCCC1)c1ccccc1S2 (stereo not drawn) [Apadoline] | 1.97e-05 M
9 | CC[C@@H]1C(=O)N(C)c2cnc(Nc3ccc(C(=O)NC4CCN(C)CC4)cc3OC)nc2N1C1CCCC1 [BI-2536] | 2.09e-07 M
10 | COc1ccc(C(=O)/C(Br)=C/C(=O)O)cc1 [Bromebrate sodium] | > 1.99e-05 M
11 | N/C(=N\Nc1ccccc1)c1ccccc1 [CBS-1114] | > 1.99e-05 M
12 | CN(C)CCCNC(=O)/C(=C/CCCCC(=O)NO)COc1cccc2ccccc12 [CG-200745] | 2.14e-07 M
13 | O=C(NO)c1cnc(N2C[C@@H]3[C@H](C2)[C@H]3NCc2ccc3cc(F)ccc3n2)nc1 [CHR-3996] | 2.8e-07 M
14 | O=C(NOCC1CC1)c1ccc(F)c(F)c1Nc1ccc(I)cc1Cl [CI-1040] | 8.54e-07 M
15 | O=c1oc(CCN2CCN(c3ccccc3)CC2)c(-c2ccc(Cl)cc2)o1 [CLODOXOPONE] | > 1.99e-05 M
16 | C#Cc1cccc(Nc2ncnc3cc(OC)c(OCCCCCCC(=O)NO)cc23)c1 [CUDC-101] | 1.05e-06 M
17 | CCCc1cc(O)c2c(c1)OC(C)(C)[C@@H]1CCC(C)=C[C@@H]21 [DELTA-9-TETRA-[…]] | 2.29e-06 M
18 | CCCCCCC(C)(C)c1cc(O)c2c(c1)OC(C)(C)[C@H]1CC=C(CO)C[C@H]21 [Dexanabinol] | 7.97e-06 M
19 | O=C(NO)c1ccc(C2=Nc3ccccc3Oc3ccccc32)cc1 [EVP-0334] | 3.03e-06 M
20 | CCN(CC)Cc1ccc2cc(COC(=O)Nc3ccc(C(=O)NO)cc3)ccc2c1 [Givinostat hydrochloride] | 9.72e-07 M
21 | O=C(NO)c1cnc(N2CCN(S(=O)(=O)c3ccc4ccccc4c3)CC2)nc1 [JNJ-16241199] | 1.59e-07 M

same assay, conditions: concentration for half-maximal activity derived from the hill equation model; MEF2 luciferase reporter; read-out: qAC50

Row | SMILES | EC50
22 | COc1ccc2[nH]cc(CCN(C(C)C)C(C)C)c2c1 [5-MeO-DIPT] | > 1.99e-05 M
23 | CC1(C)C(=O)Nc2cc3[nH]c(-c4ccncc4)nc3cc21 [ADIBENDAN] | > 1.99e-05 M
24 | COC(=O)C1=C(C)NC(C)=C(C(=O)OCC(C)=O)C1c1ccccc1[N+](=O)[O-] (stereo not drawn) [ARANIDIPINE] | 3.11e-06 M
25 | Cc1nn(C)cc1CN1CCC(c2ccc(C(=O)Nc3ccccc3N)cc2)CC1 [AZD-9468] | > 1.99e-05 M
26 | Clc1ccc2oc(C(c3ccccc3Cl)n3ccnc3)cc2c1 (stereo not drawn) [BECLICONAZOLE] | 5.1e-06 M
27 | COC(=O)Nc1nc2cc(C3(O)c4ccccc4C(=O)N3c3cc(Cl)ccc3C)ccc2[nH]1 (stereo not drawn) [BMS-908662] | > 1.99e-05 M
28 | CC(C)Nc1cc(-c2c[nH]c(C(=O)N[C@H](CO)c3cccc(Cl)c3)c2)c(Cl)cn1 [BVD-523] | 9.87e-07 M
29 | CCCCCN=C(N)Nc1nc(-c2cnc(C)[nH]2)cs1 [CP 66948] | > 1.99e-05 M
30 | CN(C)CCOc1ccc2[nH]c(C(=O)NCC#Cc3ccc(C(=O)NO)cc3)cc2c1 [CRA-026440] | 1.29e-05 M
31 | CN1Cc2ccccc2[C@@H]2c3cccc4[nH]cc(c34)C[C@H]21 [CY-208-243] | 1.96e-05 M
32 | COc1ccc2[nH]c(C(=O)c3ccccc3)cc2c1 [D-64131] | 3.74e-06 M
33 | COC(=O)Nc1nc2cc(Sc3ccc(NC(=O)[C@H](C)N)cc3)ccc2[nH]1 [DENIBULIN] | 1.51e-06 M
34 | CN(C)CCCn1c(=O)c2ccccc2c2ccccc21 [FANTRIDONE] | 5.38e-06 M
35 | O=C(Nc1nc2cccc(-c3ccc(CN4CCS(=O)(=O)CC4)cc3)n2n1)C1CC1 [Filgotinib] | > 1.99e-05 M
36 | CCN1CCC(Oc2c(C#N)ncc3[nH]c4ncccc4c23)CC1 [GDC-0425] | 1.26e-06 M
